For one test, the system named is MIA PaCa-2 cell line. As to the kind of experiment: 2D anticancer activity, MTT assay. Particulars: Homo sapiens, 72 h exposure, read-out: IC50 in 2D cultured MIA PaCa-2 cell line. Type of test: cell-based. How it is done: (§1) For the preliminary assessment of anticancer activity in a 2D cell culture system, an MIA PaCa-2 human pancreas epithelial carcinoma (CRL-1420™) cell line (ATCC, Manassas, VA, USA) was cultured in Dulbecco’s Modified Eagle Medium with 10% fetal bovine serum (FBS, v/v) (Gibco, Billings, MT, USA) and supplemented with 1% antibiotics (10,000 μg/mL streptomycin and 10,000 U/mL penicillin) (Gibco, Billings, MT, USA) at 37 °C in a humidified 5% CO2 atmosphere. For the in vitro modeling of the tumor microenvironment, compounds were also tested in a 3D spheroid test system. For this purpose, the MIA PaCa-2 human pancreas epithelial carcinoma (CRL-1420™) cell line and human dermal fibroblast cell line HDF (PCS-201-012) cells were used.
For the assessment of anticancer activity of the compounds, the MIA PaCa-2 cells were plated in 48-well microplates at 1.5 × 10^5 cells/mL and incubated for 24 h at 37 °C in 5% CO2 in accordance with a previously reported method. Following the day, the cells were treated with compounds in various concentrations between 0.1–100 µM dissolved in dimethyl sulfoxide (DMSO) (Sigma Aldrich, St. Louis, MO, USA). Following the 72 h of incubation, culture mediums were discarded and 0.5 mg/mL 3-(4,5-Dimethylthiazol-2-yl)-2,5-Diphenyltetrazolium Bromide (MTT) (Sigma Aldrich, St. Louis, MO, USA) was added to each well for an additional 2 h at 37 °C. After 2 h incubation, the medium was discarded and 100 µL of isopropanol (Sigma Aldrich, St. Louis, MO, USA) was added to the wells to dissolve formazan crystals. The optical density was measured at 570 nm wavelength using a microplate reader (Thermo Fisher Scientific Multiskan, Finland). Doxorubicin hydrochloride (DOX) (European Pharmacopoeia standard, Sigma) was used as internal positive control, and 0.5% DMSO (v/v) was used as negative control. The percentage of cell viability was determined by using the following equation:(1) Viability %=(Absorbancecompound)/(Absorbancenegative control)×100%
A general note: Tetrazolium assays rely on reduction of a dye to a coloured formazan, in cell work by metabolically active cells.

Test [1] relates to MIA PaCa-2 tumor spheroids. As to the kind of experiment: 3D spheroid formation/growth assay. The test is classed as cell-based, human. Particulars: 10 µM, after 9 days of treatment. How it is done:
as §1
For 3D spheroid formation, the MIA PaCa-2 cells (PC cell line) and HDF cells were used according to the 3D Bioprinting method. To better simulate the tumor microenvironment, PC cells were mixed (1:1) with human fibroblasts. Briefly, the MIA PaCa-2 cells and human fibroblasts at 70–80% confluency were added to a 6-well plate and incubated with biocompatible NanoShuttle TM-PL (Bioprinting Kit, Greiner Bio-One, Germany) overnight at 37 °C in a humidified 5% CO2 atmosphere. After the nanoparticles were taken up by the cells, they were resuspended and seeded into an ultra-low attachment 96-well plate at a volume of 100 μL (2000 PC cells and 2000 human fibroblasts per well) volume. The plate was placed on a magnetic drive and incubated at 37 °C in a humidified 5% CO2 atmosphere until spheroids were formed. After two days of incubation, the spheroids were photographed using light microscopy (Carl Zeiss Primo Vert, Germany). Fresh medium containing 0.1, 1, 10, and 100 µM of tested compound was added to the wells. Photos were taken every 72 h, and the medium was replaced every 72 h. The effect of the tested compounds in 3D PC cell cultures was examined by measuring the size change of spheroids using ImageJ software (ImageJ 2.0 software, USA).

The next test relates to HaCaT cell line. As to the kind of experiment: Cell viability (cytotoxicity) in healthy cells, MTT assay. The test is classed as cell-based, human. To be noted: Homo sapiens, HaCaT; MTT, 72 h, healthy keratinocytes; read-out: IC50 in 2D cultured HaCaT cell line. How it is done:
HaCaT human healthy keratinocyte cells (CRL-2404™) (ATCC, Manassas, VA, USA) were cultured in DMEM (10% FBS, v/v) (Gibco, Billings, MT, USA), respectively and supplemented with 1% antibiotics (10.000 μg/mL streptomycin and 10.000 units/mL penicillin) (Gibco, Billings, MT, USA) at 37 °C in a humidified atmosphere of 5% CO2. For the preliminary assessment of the cytotoxicity of selected potent compounds in healthy cells, HaCaT cells were seeded 2 × 10^5 cells/mL in 96-well plate and incubated for 24 h. The following day the 7a, 7d, and 7f compounds were applied similarly as in the MIA PaCa-2 cytotoxicity protocol between concentrations 0.62–100 µM for 72 h and then MTT was applied.

Where a name gives a salt, the structure may show the parent alone.

What is called IC50 is the point on the concentration scale where inhibition reaches its midpoint. Take `COc1cccc2c1C(=O)c1c(O)c3c(c(O)c1C2=O)C[C@@](O)(C(=O)CO)C[C@@H]3O[C@H]1C[C@H](N)[C@H](O)[C@H](C)O1` [DOX, Doxorubicin hydrochloride, reference compound]: the IC50 in the test on MIA PaCa-2 cell line is 350 ± 180 nM; with HaCaT cell line, 110 ± 80 nM. The “Reduction in spheroid size” value in test [1] amounted to 24%.

Source of the values: PMC10223062, “Discovery of Novel Thiophene/Hydrazones: In Vitro and In Silico Studies against Pancreatic Cancer” (Pharmaceutics, 2023).
